How the values were obtained:
H929-1051 = assay: Coculture of compound-treated anti-CD3-activated PBMCs with untreated myeloma cells; assay type: cell-based; conditions: Homo sapiens, untreated H929-1051, T:E 1:5, 24 h, read-out: IC50 tumor cell lysis by compound-treated PBMCs
Protocol: (§1) Coculture Assays with Compound-treated Human Peripheral Blood Mononuclear Cells and Untreated Myeloma Cell Lines. Methods: Cell Culture. All myeloma cell lines were kept in log phase, and cell density and viability were monitored by trypan blue exclusion using the Vi-CELL XR cell viability analyzer.
(§2) PBMC Treatment Assay Procedure. Ninety-six-well dishes were pre-coated with anti-CD3 antibody (OKT3, 3 μg/mL) and incubated at 4° C. overnight before the start of the experiment. Frozen PBMC donors, were thawed at 37° C. for 2 minutes in RPMI medium with 10% FBS and cell counts and viability were measured on the Vi-CELL® (Beckman Coulter). Peripheral blood mononuclear cells were washed and diluted to 1×10^6 cells/mL and dispensed to the compound-treated plates in a total volume of 200 μL. Cells were incubated with compounds for 2 h before being transferred onto anti-CD3-coated plates and incubated for an additional 72 h at 37° C. After 72 h, the PBMCs were centrifuged, and cells were washed twice in RPMI medium+10% FBS. […] Peripheral blood mononuclear cells were counted and added to the MM cells at a target:effector (T:E) ratio of 1:5. After 24 h co-culture, specific target cell lysis by PBMCs was measured using Annexin V-AF647 and 7-AAD according to manufacturer's instructions and samples were run on the Attune NxT Cytometer (Thermo Fisher).

NCI-H929 = assay: as above; assay type: cell-based; conditions: Homo sapiens, T:E 1:5, 24 h, read-out: IC50 tumor cell lysis by compound-treated PBMCs
Protocol: as §1, §2

[1] = system: neutrophil progenitors (bone marrow CD34+ cells from healthy donors); assay: Ex vivo maturation of myeloid progenitors to adult neutrophils
Protocol: Methods: Ex vivo cultures of bone marrow (BM) CD34^+ cells from healthy donors (HD) were used to investigate neutrophil-specific ex vivo maturation. In vitro differentiation of neutrophil progenitors was induced by adding stem cell factor (SCF), fins-related tyrosine kinase 3 ligand (Flt3-L), and granulocyte colony stimulating factor (G-CSF) to culture media. Cell differentiation was evaluated by flow cytometry as the percentage of cells in 5 subpopulations: hematopoietic stem cells (HSC, CD34^+/CD33^−/CD11b^−) and Stage I (CD34^+/CD33^+/CD11b^−), Stage II (CD34^−/CD33^+/CD11b^−), Stage III (CD34^−/CD33^+/CD11b^+), and Stage IV (CD34^−/CD33^−/CD11b^+) (from immature to mature), as shown in FIG. 7. The effects of Compound 2 on maturation of neutrophil progenitors were assessed and different dosing schedules were evaluated to gain insight into the schedule dependence of these events.
Longer Daily Compound 2 Exposures. To further characterize the potential impacts of different schedules on arrest of neutrophil progenitor maturation and subsequent recovery, changes in the relative proportions of each of the aforementioned stages of myeloid progenitor […] CD34^+ BM cells derived from healthy donors were exposed to Compound 2 on 3 or 5 consecutive days starting on Day 10 for 6 h (Donors No. 1 and 2) or for 24 h (Donors No. 3 and 4) each day. […]

THLE-2 = assay: Anti-proliferative counter-screen (CellTiter-Glo, 72 h); assay type: cell-based; conditions: Homo sapiens
MM cell lines = assay: Daratumumab-mediated ADCC assay; assay type: cell-based, human
Protocol: ADCC Assay: The effect of Compound 2 or pomalidomide on daratumumab-mediated ADCC was evaluated in vitro by flow cytometry in a panel of MM cell lines. The NK cells were cultured overnight in NK culture medium containing 10 U/mL of recombinant human IL-2 before the start of the assay. The NK cells were washed and resuspended back in NK cell culture medium at 3.75×10^6 cells/mL. The MM cells were pretreated with sub-lethal concentrations of Compound 2 or pomalidomide for 72 h before using in the ADCC assay. The MM cells were washed and labelled with Tag-it Violet™ Proliferation and Cell Tracking Dye according to the manufacturer's instructions, followed by resuspension in NK culture medium at a concentration of 0.75×10^6 cells/mL. The ADCC assay was performed in triplicate with an effector to tumor ratio of 10:1 in a 96 well plate. MM cells (10 μL) were mixed with 10 μL of 2× concentration of daratumumab in the wells before the addition of 20 μL of NK cells. The co-cultures were incubated at 37° C. for 3 h followed by the addition of 50 μL of 7-AAD solution at room temperature for 15 minutes. The analysis was performed on a BD Celesta flow cytometer.

N#Cc1ccc(N2CCN(Cc3ccc(COc4cccc5c4CN([C@H]4CCC(=O)NC4=O)C5=O)cc3)CC2)c(F)c1 [Compound 2, (S)-4-(4-(4-(((2-(2,6-dioxopiperidin-3-yl)-1-oxoisoindolin-4-yl)oxy)methyl)benzyl)piperazin-1-yl)-3-fluorobenzonitrile]
IC50 (H929-1051): 0.2 nM
IC50 (NCI-H929): 5 nM
loss of viability [1]: no loss of viability was observed
late-stage maturation of neutrophil progenitors ([1]; 1, 10, 100 nM, 2, 4, 6 h exposures for up to 3 consecutive days): blocked
IC50 (THLE-2): > 10000 nM
daratumumab-mediated ADCC of pretreated MM cells (MM cell lines; 72 h pretreatment, sub-lethal concentrations, NK cells E:T 10:1): higher degree of tumor lysis with daratumumab compared to untreated cells
daratumumab-mediated ADCC (MM cell lines; ARH-77 cell line): enhanced ADCC

— patent US12029738B2, “Antiproliferative compounds and methods of use thereof” (Celgene Corporation, priority 2017, dated 2024)
